# Where two headings read alike, the source gives them in different places.
# Experiment: Phase one study part 1: single dose plasma PK of free and total DGLA, fasted
# Type: in vivo, human
# Settings: for half-life / Tmax: both sexes, human, plasma, oral; for half-life: read-out: t1/2, median, free DGLA, baseline-corrected plasma (converted)
# Experimental: A single-center, double-blind, randomized, placebo-controlled, two part Phase one study was performed in healthy male and female subjects aged 18 to 45 years inclusive. The primary objective of this study was to assess the safety and plasma pharmacokinetics (PK) of orally administered single doses and orally administered multiple doses of DS107G capsules (once daily for 28 days) in healthy subjects.
# Subjects were randomly assigned in a 3:1 ratio of DG107G to placebo by block randomization. Single dose part one of the study comprised three cohorts of eight subjects each, with the addition of Cohort four based on evaluation of the safety data of Cohort three by the Safety Monitoring Committee (SMC). A single oral dose of DS107G or matching placebo was administered to fasted subjects in Cohorts one to three (500, 1000, and 2000 mg, respectively) in parallel; subjects in Cohort four were administered a dose of 4000 mg following completion of Cohort three. Subjects in Cohort two received 1000 mg or matching placebo in the fed state at 14 days after the first dose.
# Safety assessments were monitored throughout the study.
# In Part one of the study, subjects in Cohorts one to three were administered a single dose of study drug (either 500-, 1000-, or 2000-mg as 500-mg DS107G capsules or matching placebo capsules) in parallel on study Day 1 after at least an 8-hour fast, according to Table 20. Cohort 4 was initiated following the review of safety data from Cohort 3 by the SMC.
# Analysis of populations included the following: • The Intention-to-Treat (ITT) population consists of all randomized subjects who had been administered at least 1 dose of study drug. • The Per Protocol (PP) population consists of all subjects in the ITT population who had no major protocol violation, as defined in the SAP. • The PK population contains all subjects included in the PP population who had evaluable PK data derived from plasma. A plasma concentration observation was considered a valid, evaluable measurement if the following data were available: study identification number, randomization number, date and time of sampling, dose and concentration. A series of such measurements from the same sample were considered complete if each protocol prescribed concentration was evaluable. Plasma PK data were evaluable by definition if the data contained a complete series of observations. Any missing plasma PK observation would result in incomplete PK data, thus a subject with any missing plasma PK observation was excluded from the PK population. Subjects randomized to placebo were also excluded from the PK population.
compound,measurement,setting,value
"CCCCC/C=C\C/C=C\C/C=C\CCCCCCC(=O)O [DS107G, Dihomo gamma linolenic acid]","AUC0-24, mean, free DGLA, baseline-corrected plasma",500 mg single dose,2.7281 µg·h/mL
same,"AUC0-24/Dose, mean, free DGLA, baseline-corrected plasma",500 mg single dose,5.46 h/kL
same,"AUC0-24/Dose, mean, total DGLA, baseline-corrected plasma",500 mg single dose,79.11 h/kL
same,"AUC0-inf, mean, free DGLA, baseline-corrected plasma",500 mg single dose,21.4833 µg·h/mL
same,"AUC0-inf/Dose, mean, free DGLA, baseline-corrected plasma",500 mg single dose,42.97 h/kL
same,"AUC0-inf/Dose, mean, total DGLA, baseline-corrected plasma",500 mg single dose,8831.93 h/kL
same,"CL/F, mean, free DGLA, baseline-corrected plasma",500 mg single dose,0.0306 kL/h
same,"Cmax, mean, free DGLA, baseline-corrected plasma",500 mg single dose,0.9346 µg/mL
same,"Cmax/Dose, mean, free DGLA, baseline-corrected plasma",500 mg single dose,1.869 kL⁻¹
same,"Cmax/Dose, mean, total DGLA, baseline-corrected plasma",500 mg single dose,14.400 kL⁻¹
same,"λz, mean, free DGLA, baseline-corrected plasma",500 mg single dose,0.0035 h⁻¹
same,"λz, mean, total DGLA, baseline-corrected plasma",500 mg single dose,0.0013 h⁻¹
same,"AUC0-24, mean, free DGLA, baseline-corrected plasma",1000 mg single dose,3.9985 µg·h/mL
same,"AUC0-24/Dose, mean, free DGLA, baseline-corrected plasma",1000 mg single dose,4.00 h/kL
same,"AUC0-24/Dose, mean, total DGLA, baseline-corrected plasma",1000 mg single dose,215.37 h/kL
same,"AUC0-inf, mean, free DGLA, baseline-corrected plasma",1000 mg single dose,218.9556 µg·h/mL
same,"AUC0-inf/Dose, mean, free DGLA, baseline-corrected plasma",1000 mg single dose,218.96 h/kL
same,"AUC0-inf/Dose, mean, total DGLA, baseline-corrected plasma",1000 mg single dose,4031.41 h/kL
same,"CL/F, mean, free DGLA, baseline-corrected plasma",1000 mg single dose,0.1866 kL/h
same,"Cmax, mean, free DGLA, baseline-corrected plasma",1000 mg single dose,1.6028 µg/mL
same,"Cmax/Dose, mean, free DGLA, baseline-corrected plasma",1000 mg single dose,1.603 kL⁻¹
same,"Cmax/Dose, mean, total DGLA, baseline-corrected plasma",1000 mg single dose,15.750 kL⁻¹
same,"λz, mean, free DGLA, baseline-corrected plasma",1000 mg single dose,0.0487 h⁻¹
same,"λz, mean, total DGLA, baseline-corrected plasma",1000 mg single dose,0.0136 h⁻¹
same,"AUC0-24, mean, free DGLA, baseline-corrected plasma",2000 mg single dose,6.429 µg·h/mL
same,"AUC0-24/Dose, mean, free DGLA, baseline-corrected plasma",2000 mg single dose,3.21 h/kL
same,"AUC0-24/Dose, mean, total DGLA, baseline-corrected plasma",2000 mg single dose,105.25 h/kL
same,"AUC0-inf, mean, free DGLA, baseline-corrected plasma",2000 mg single dose,26.877 µg·h/mL
same,"AUC0-inf/Dose, mean, free DGLA, baseline-corrected plasma",2000 mg single dose,13.44 h/kL
same,"AUC0-inf/Dose, mean, total DGLA, baseline-corrected plasma",2000 mg single dose,1138.25 h/kL
same,"CL/F, mean, free DGLA, baseline-corrected plasma",2000 mg single dose,0.1339 kL/h
same,"Cmax, mean, free DGLA, baseline-corrected plasma",2000 mg single dose,2.074 µg/mL
same,"Cmax/Dose, mean, free DGLA, baseline-corrected plasma",2000 mg single dose,1.037 kL⁻¹
same,"Cmax/Dose, mean, total DGLA, baseline-corrected plasma",2000 mg single dose,8.867 kL⁻¹
same,"λz, mean, free DGLA, baseline-corrected plasma",2000 mg single dose,0.0200 h⁻¹
same,"λz, mean, total DGLA, baseline-corrected plasma",2000 mg single dose,0.0084 h⁻¹
same,"AUC0-24, mean, free DGLA, baseline-corrected plasma",4000 mg single dose,9.4368 µg·h/mL
same,"AUC0-24/Dose, mean, free DGLA, baseline-corrected plasma",4000 mg single dose,2.36 h/kL
same,"AUC0-24/Dose, mean, total DGLA, baseline-corrected plasma",4000 mg single dose,109.44 h/kL
same,"AUC0-inf, mean, free DGLA, baseline-corrected plasma",4000 mg single dose,17.1136 µg·h/mL
same,"AUC0-inf/Dose, mean, free DGLA, baseline-corrected plasma",4000 mg single dose,4.28 h/kL
same,"AUC0-inf/Dose, mean, total DGLA, baseline-corrected plasma",4000 mg single dose,1493.38 h/kL
same,"CL/F, mean, free DGLA, baseline-corrected plasma",4000 mg single dose,0.2420 kL/h
same,"Cmax, mean, free DGLA, baseline-corrected plasma",4000 mg single dose,3.0218 µg/mL
same,"Cmax/Dose, mean, free DGLA, baseline-corrected plasma",4000 mg single dose,0.755 kL⁻¹
same,"Cmax/Dose, mean, total DGLA, baseline-corrected plasma",4000 mg single dose,6.471 kL⁻¹
same,"λz, mean, free DGLA, baseline-corrected plasma",4000 mg single dose,0.0603 h⁻¹
same,"λz, mean, total DGLA, baseline-corrected plasma",4000 mg single dose,0.0102 h⁻¹
same,half-life,500 mg single dose,206 h
same,Tmax,"500 mg single dose, read-out: tmax, median, free DGLA, baseline-corrected plasma",4 h
same,half-life,1000 mg single dose,28.3 h
same,Tmax,"1000 mg single dose, read-out: tmax, median, free DGLA, baseline-corrected plasma",4 h
same,half-life,2000 mg single dose,57.3 h
same,Tmax,"2000 mg single dose, read-out: tmax, median, free DGLA, baseline-corrected plasma",4 h
same,half-life,4000 mg single dose,67.5 h
same,Tmax,"4000 mg single dose, read-out: tmax, median, free DGLA, baseline-corrected plasma",4 h
same,Tmax,"single dose 500-4000 mg, read-out: median time to maximum concentration (Tmax), free DGLA",4 h
same,"dose dependence of mean baseline-corrected Cmax and AUC0-24, free and total DGLA",single dose 500-4000 mg,increased in a linear manner

# — patent publication US20180333382A1, “PHARMACEUTICAL COMPOSITIONS COMPRISING DGLA AND USE OF SAME” (DS Biopharma Limited, priority 2017, published 2018)
